From patent US8389544B2, “Isoquinolone compounds as subtype-selective agonists for melatonin receptors MT1 and MT2” (The Hong Kong University of Science and Technology, priority 2007, dated 2013)
Read-outs that look alike come from different tables or passages of the source.

Tests used:
Set-up in all cases: expressed in transfected cells
[1] = molecular target: T1, MT1 receptor (Homo sapiens, UniProt P48039); experiment: ERK phosphorylation assay, MT1; format: cell-based; conditions: HEK293 cells; isoquinolone 1 μM or 2-iodomelatonin 100 nM, 5 min; against unstimulated control cells
Source text: 3. ERK Phosphorylation Assay This assay indicates the ability of the novel compounds to activate MT1 or MT2 receptors by measuring downstream events of the activated receptor, in this case ERK phosphorylation. The amount of phosphorylated ERK1/2 was detected and quantified in western blots. The data in Table 2 is expressed as the fold stimulation against the unstimulated control cells. 6. Detection of ERK phosphorylation […] Stimulation was terminated by aspiration on ice and immediate lysis by 200 μl of 1× protein gel loading buffer. Lysates were denatured by boiling for 5 min and cooled at room temperature until loading. 30 μl of each lysate was separated on 12% SDS-PAGE and transferred to nitrocellulose membrane by electroblotting. Success of transfer was visualized by Ponceau S staining. All subsequent incubations were under gentle agitation (˜100 strokes/min). […] Primary antisera against phosphorylated- or total-ERK1/2 were incubated with the blocked membrane at an appropriate dilution (1:4000-1:2000) in Blotto for overnight at 4° C. The membrane was washed with fresh Blotto for 3 times of 15 min each, then incubated with secondary antiserum (horseradish peroxidase-conjugated anti-rabbit IgG) at the dilution of 1:1000 in 1×TBS for 1 h at room temperature. The membrane was quickly rinsed with excessive 1×TBS for 3 times, and followed by 4 washes of 1×TBS for 10 min. By the end, a premix of luminol-based chemiluminescence substrate solution was prepared (1 ml for every 8 cm^2 of membrane) and overlaid onto the washed membrane to incubate for 1 min. After removing excessive solution, the membrane was covered with saran wrap and an autograph with appropriate exposure was developed on X-ray film in dark room. The image was scanned and the band intensities quantified using ImageJ 1.34. Data was expressed as the percentage response of the vehicle-treated or untreated samples. Experiments were performed at least 3 times and the average responses±SEM were presented.

[2] = molecular target: T2, MT2 receptor (Homo sapiens, UniProt P49286); experiment: Competitive [3H]melatonin binding assay, MT2; conditions: displacement of 1 nM [3H]melatonin
T2 sequence (P49286 1-362): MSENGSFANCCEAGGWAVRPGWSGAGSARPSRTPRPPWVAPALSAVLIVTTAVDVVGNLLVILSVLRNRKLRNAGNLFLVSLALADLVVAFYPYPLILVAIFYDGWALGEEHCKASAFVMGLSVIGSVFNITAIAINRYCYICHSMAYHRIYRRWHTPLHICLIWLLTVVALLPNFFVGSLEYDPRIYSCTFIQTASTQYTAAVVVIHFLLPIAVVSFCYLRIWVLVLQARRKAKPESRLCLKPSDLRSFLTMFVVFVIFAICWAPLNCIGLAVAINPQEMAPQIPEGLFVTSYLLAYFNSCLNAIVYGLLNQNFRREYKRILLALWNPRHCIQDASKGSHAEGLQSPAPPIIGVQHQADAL
Method: (§1) Competitive ligand binding assays were performed to examine the receptor binding characteristics of the novel isoquinolone compounds. The assay measures the ability of the novel isoquinolone compounds to bind and displace the radiolabelled endogenous ligand, [^3H]melatonin. Increasing concentrations of the novel compounds are added to displace the [^3H]melatonin-bound to MT1 or MT2 receptor-expressing cells.
(§2) 4. Competitive Binding Assay
(§3) The ability of compounds to bind to MT1 and/or MT2 receptors is determined using radioligand binding assays. […] 48 hours following transfection, cells are harvested in binding buffer (50 mM Tris-HCl, 2 mM MgCl2, 1 mM EDTA, pH 7.4). 100,000 cells are incubated with 1 nM [^3H] melatonin (specific activity: 83 Ci/mmol; GE Healthcare) and appropriate concentrations (0.1 nM to 1 μM) of unlabelled ligands in a total volume of 100 μl in 96-well plates (PerkinElmer Life And Analytical Sciences, Inc., Boston, Mass.) for 2 hours at room temperature. Reactions are terminated by rapid filtration through a 96-well cell harvester onto 96-well GF/C filter mats. Filters are washed with 500 μl of ice-cold binding buffer, dried and sealed in a polyethylene bag with 3.5 ml of scintillation fluid and counted for tritium in a Microbeta Jet scintillation counter. […] Data are analyzed by nonlinear least-squares regression using GraphPad Prism 3.02.

[3] = molecular target: T1, MT1 receptor; experiment: Competitive [3H]melatonin binding assay, MT1; conditions: displacement of 1 nM [3H]melatonin, HEK-293 cells; log value, negative; NSB = No significant binding
Method: as §1, §2, §3

[4] = HEK-293 cells, log value, negative, NSB = No significant binding
[5] = unit inferred, read-out: Binding Assay MT2 IC50

T1 sequence (P48039 whole entry): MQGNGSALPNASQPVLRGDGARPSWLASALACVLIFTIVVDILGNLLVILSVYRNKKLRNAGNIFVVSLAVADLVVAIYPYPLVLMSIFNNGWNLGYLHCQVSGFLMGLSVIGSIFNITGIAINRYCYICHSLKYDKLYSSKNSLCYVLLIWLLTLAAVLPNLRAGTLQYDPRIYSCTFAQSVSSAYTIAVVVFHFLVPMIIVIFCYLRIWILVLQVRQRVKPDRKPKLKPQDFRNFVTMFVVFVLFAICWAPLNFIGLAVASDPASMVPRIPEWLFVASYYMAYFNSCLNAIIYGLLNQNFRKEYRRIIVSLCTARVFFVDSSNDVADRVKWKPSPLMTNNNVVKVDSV

| SMILES | ERK Phosphorylation MT1 Fold Stim. [1] [Fold] | Binding Assay MT2 logIC50 ± SEM [2, 4] | Binding Assay MT1 logIC50 ± SEM [3] | IC50 [2, 5] [nM] | IC50 ([2]; HEK-293 cells, log value, negative, NSB = No significant binding, read-out: Binding Assay MT2 logIC50 ± SEM (converted)) [nM] |
| --- | --- | --- | --- | --- | --- |
| Cn1ccc2cc(OC(=O)c3ccccc3)c(OC(=O)c3ccccc3)cc2c1=O [IS039] | 2.75 | NSB | NSB | – | – |
| COc1cc(COc2cc3ccn(C)c(=O)c3cc2OC)cc(OC)c1 [IS042] | 4.94 | NSB | NSB | – | – |
| COc1cccc(COc2cc3ccn(C)c(=O)c3cc2OC)c1 [IS044] | 3.25 | – | NSB | – | – |
| COc1cccc(COc2cc3c(=O)n(C)ccc3cc2OC)c1 [IS521] | 3.80 | – | NSB | 145 | – |
| COc1cc(COc2cc3c(=O)n(C)ccc3cc2OC)cc(OC)c1 [IS523] | 3.74 | NSB | NSB | – | – |
| COc1cc2ccn(C)c(=O)c2cc1OCc1ccc(C(C)(C)C)cc1 [IS526] | – | NSB | NSB | – | – |
| COc1cccc(COc2c(OC)ccc3c(=O)n(C)ccc23)c1 [IS527] | 2.47 | – | NSB | 108 | 117 |
| COc1cc(COc2c(OC)ccc3c(=O)n(C)ccc23)cc(OC)c1 [IS528] | 1.73 | NSB | NSB | – | – |
| COc1ccc2c(=O)n(C)ccc2c1OCc1ccc(C)cc1 [IS529] | 2.37 | NSB | NSB | – | – |
